In patent publication US20220233624A9, “ANTI-CANCER AND ANTI-PROLIFERATIVE COMPOSITIONS, AND METHODS FOR THEIR USE IN TREATING CANCER” (Natreon, Inc., priority 2020, published 2022):
Values joined by “and” are separate entries in the source; they are usually repeats but may differ in a detail not shown here. Equal entries are not always repeated. Where two headings read alike, the source gives them in different places.

Key:
[1] = tested on: Breast Cancer PDCs, Triple negative (TN), SB 36344; assay: Anti-proliferation assay on breast cancer TN PDCs; type: cell-based, human; settings: drug alone @ 10 uM; for inhibition at 10 µM: Homo sapiens
Procedure: (§1) The outermost rows/columns of the plates were filled with PBS (pH 7.4) to avoid an edge-effect and were considered as blanks. Standardized aqueous extracts identified in Table 2 were prepared in main stock solutions by dissolving 1 mg of extract in 1 ml PBS (phosphate-buffered saline, pH 7.4). […] The plate was incubated in a CO2 incubator for 0/N incubation for 24 hours. […] Once extracts were added to incubated cells and mixed gently, the plate was given a brief spin and incubated in the CO2 incubator for 72 hours. The plate was removed from the incubator and 10 ul of detection reagent (CellTiterGlo®; Promega Corporation, Wisconsin, USA) added to each well of the 384 well plate. […] The assay described above is a two-dimensional (2D) assay.

[2] = tested on: Glioma SB 32833 Glioblastoma Grade IV patient derived cells; assay: Anti-proliferation assay on glioma PDCs SB 32833; type: cell-based; settings: Homo sapiens, drug @ 10 uM
Procedure: The anti-cancer activity of AyuFlex®, Capros®, and Ayuric® was further tested on two other glioma PDCs taken from 2-3 different subjects (SB 6129, SB 32833 (person)). […] Also, the anti-cancer activity of AyuFlex®, Capros®, and Ayuric® was further tested on existing glioblastoma cell line U87 MG, to allow comparisons with other compositions known in the art. AyuFlex®, Capros®, and/or Ayuric® were incubated with the new PDC lines and the U87 MG cell line for 72 hours, as described in Example I above.
Table 68 relates to FIG. 31, a graph showing the efficacy of AyuFlex®, Capros®, and/or Ayuric® on Glioma SB 32833 Glioblastoma Grade IV patient derived cells, in a combination study.

[3] = tested on: Pancreatic cancer (Panc-1) cells; assay: Anti-proliferation assay on pancreatic cancer cells; type: cell-based; settings: Homo sapiens
Procedure: Cells were plated at 1.25 k/well in 384 well plates. […] Anti-proliferative assays were generally performed as described in Example I above, in triplicate, with detection reagent CellTiterGlo. Tables 98-99 show data for controls for assays on histiocytic lymphoma (U-937) cells, and that the data passed quality control parameters. Tables 101-102 show data for controls for assays on pancreatic cancer (Panc-1) cells, and that the data passed quality control parameters. […] The assay is generally as described in Example I.

[4] = tested on: AML (Acute myeloid leukemia) PDCs, M4 subtype (SB 33866); assay: Anti-proliferation assay on AML PDCs; type: cell-based, human; settings: for inhibition at 10 µM: assay drug control @ 10 uM
Procedure: Anti-proliferation assays were performed on 6 types of primary patient-derived cancer cells (PDCs) from 6 different human donors, as described in Table 1:
Tests were performed in 384-well plates (24×16), using 1250 to 10,000 cells/well depending on the size and proliferation rate of different PDCs, in 30 ul of culture media (DMEM/F12 with serum and growth factors), with control wells set aside on each plate for media alone (4 wells), untreated PDCs (4 wells), and for PDCs treated with 10 ul of a known anti-cancer drug as a control. […] The outermost rows/columns of the plates were filled with PBS (pH 7.4) to avoid an edge-effect and were considered as blanks.
Standardized aqueous extracts identified in Table 2 were prepared in main stock solutions by dissolving 1 mg of extract in 1 ml PBS (phosphate-buffered saline, pH 7.4).
Anti-Proliferation Assay Protocol: 30 ul of cells were plated at the density of 1250 to 10,000 cells/well. The plate was incubated in a CO2 incubator for 0/N incubation for 24 hours. […] Final assay concentrations of made from stock solutions of standardized aqueous extracts identified in Table 2 were 100 ug/ml, 30 ug/ml, and 10 ug/ml. Since 10 ul extract was added to 30 ul of cell suspension, it diluted 4 times, so to maintain the final assay concentrations, 4× concentrated extract solutions (400 ug/ml, 120 ug/ml, and 40 ug/mo) were prepared from main stock (1 mg/ml) and added to the plate. In all experiments, 10 ul of 4 times concentrated stock (4×) was added to wells containing 30 ul of cell suspension to achieve final assay concentrations at 1X.
Once extracts were added to incubated cells and mixed gently, the plate was given a brief spin and incubated in the CO2 incubator for 72 hours. The plate was removed from the incubator and 10 ul of detection reagent (CellTiterGlo®; Promega Corporation, Wisconsin, USA) added to each well of the 384 well plate. The plate was incubated (10 min) and luminescence counts measured, with luminescence produced proportional to the number of viable (living, metabolically active) cells for each assay. The assay described above is a two-dimensional (2D) assay.
In this Example, AML drugs were used as disease specific controls.
As discussed above in Example I, 6 extracts (Ayuflex®, Capros®, Phyto-BGS®, PrimaVie®, Sensoril®, and Ayuric®) were tested on AML PDC-SB cells (33866, M-4 type, subject) at 3 concentrations: 100 ug/ml, 30 ug/ml, and 10 ug/ml.

[5] = tested on: Breast Cancer PDCs, ER/PR+ Her2 equivocal (HR+); assay: Anti-proliferation assay on breast cancer HR+ PDCs; type: cell-based, human; settings: drug alone @ 10 uM; for inhibition at 10 µM: Homo sapiens
Procedure: as §1

AML cell line HL60 = assay: Anti-proliferation assay on HL60 AML cells; type: cell-based; settings: for inhibition at 10 µM: 72 h, Plate 1
Procedure: 2500 cells were plated per well in 384 well plates. […] CellTiter Glo was used as a detection reagent. Extracts were incubated with the AML HL60 cells for 72 hours.

[6] = read-out: % Inhibition, single replicates

COc1cccc2c1C(=O)c1c(O)c3c(c(O)c1C2=O)C[C@@](O)(C(=O)CO)C[C@@H]3O[C@H]1C[C@H](N)[C@H](O)[C@H](C)O1 [Doxorubicin, doxorubicin]
inhibition at 10 µM ([1]; read-out: % Inhibition Avg): 73% | inhibition at 10 µM [1, 6]: 73% | % Inhibition Avg ([1]; 10 µM): 93% | % Inhibition, single replicates ([1]; 10 µM): 72% and 91% and 92% | inhibition at 10 µM ([2]; read-out: % Inhibition Avg): 87% | inhibition at 10 µM ([2]; read-out: % Inhibition n1): 91% | inhibition at 10 µM ([2]; read-out: % Inhibition n2): 86% | inhibition at 10 µM ([2]; read-out: % Inhibition n3): 86% | inhibition at 10 µM ([3]; 10 uM, 72 h, read-out: % Inhibition Average (SD)): 94% | inhibition at 10 µM ([3]; 10 uM, 72 h, read-out: % Inhibition n1): 94% | inhibition at 10 µM ([3]; 10 uM, 72 h, read-out: % Inhibition n2): 94% | inhibition at 10 µM ([3]; 10 uM, 72 h, read-out: % Inhibition n3): 95% | inhibition at 10 µM ([3]; drug 10 uM, read-out: inhibition): 94% | Inhibitory Concentration IC75 ([4]; AML cells (M4)): 260 nM | inhibition at 10 µM ([4]; Homo sapiens, read-out: % Inhibition Avg): 72% | inhibition at 10 µM ([4]; Homo sapiens, read-out: % Inhibition n1): 70% | inhibition at 10 µM ([4]; Homo sapiens, read-out: % Inhibition n2): 73% | inhibition at 3 µM ([4]; Homo sapiens, drug alone 3 uM, read-out: inhibition of AML proliferation): 100% | inhibition at 3 µM ([4]; Homo sapiens, drug alone @ 3 uM, read-out: % Inhibition Avg): 100% | inhibition at 3 µM ([4]; Homo sapiens, drug alone @ 3 uM, read-out: % Inhibition n1): 100% | inhibition at 3 µM ([4]; Homo sapiens, drug alone @ 3 uM, read-out: % Inhibition n2): 100% | inhibition at 3 µM ([4]; Homo sapiens, drug alone @ 3 uM, read-out: % Inhibition n3): 100% | IC50 ([4]; Homo sapiens, AML cells (M4), read-out: Inhibitory Concentration IC50): 103 nM | inhibition at 10 µM ([5]; read-out: % Inhibition Avg): 78% | inhibition at 10 µM [5, 6]: 75% | % Inhibition Avg ([5]; 10 µM): 77% | % Inhibition, single replicates ([5]; 10 µM): 81% | IC25 (AML cell line HL60; HL60 AML cells, potential dosing for further experiments): 59 nM | inhibition at 3 µM (AML cell line HL60; Homo sapiens, HL-60): ≥ 90% | inhibition at 10 µM (AML cell line HL60; Homo sapiens, HL-60, read-out: % Inhibition Average (SD)): 0% | inhibition at 10 µM (AML cell line HL60; Homo sapiens, HL-60, read-out: % Inhibition n1): 100% | inhibition at 10 µM (AML cell line HL60; Homo sapiens, HL-60, read-out: % Inhibition n2): 100% | inhibition at 10 µM (AML cell line HL60; Homo sapiens, HL-60, read-out: % Inhibition n3): 100% | IC50 (AML cell line HL60; Homo sapiens, HL-60, dose-response curve, FIG. 35): 79 nM
